According to ChEMBL document CHEMBL1139796, “Novel anti-tuberculosis agents from MCR libraries” (Bioorg Med Chem Lett, 2007):
Converted amounts (≈) assume the structure as drawn.

What was measured:
[1] = test system: Mycobacterium tuberculosis; experiment: Antimycobacterial activity against Mycobacterium tuberculosis H37Rv by broth microdilution alamar blue assay; format: functional
[2] = test system: Vero; experiment: Cytotoxicity against Vero cells; format: cell-based; conditions: Chlorocebus sabaeus
[3] = Selectivity index, IC50 for Vero cells to MIC for Mycobacterium tuberculosis H37Rv; format: functional
[4] = test system: Mycobacterium tuberculosis; experiment: Reduction of Mycobacterium tuberculosis H37Rv growth in mouse peritoneal macrophage monolayers after 7 days; format: functional; conditions: 168 h

Structure (SMILES) | MIC [1] | IC50 [2] | Selectivity index [3] | EC90 [4] | EC99 [4]
CCCCC(C(=O)NCc1ccccc1)N(C(=O)c1cnccn1)C1CCCCC1 (centres undefined) | 3.13 µg/mL (≈ 7.66 µM) | 27.9 µg/mL (≈ 68.3 µM) | 9.9 |  | 
CC(C)CCN(C(=O)c1cccnc1)C(C(=O)NCc1cccnc1)c1ccccc1 (centres undefined) | 3.13 µg/mL (≈ 7.51 µM) | 50.3 µg/mL (≈ 121 µM) | 16.1 | > 12.5 µg/mL | > 12.5 µg/mL
C=CCNC(=O)C1(OC(=O)c2cccnc2)CCN(Cc2ccccc2)CC1 | 6.25 µg/mL (≈ 16.5 µM) | > 62.5 µg/mL | >10 |  | 
C=CCNC(=O)C(CCCC)N(CC=C)C(=O)c1cccnc1.Cl (centres undefined) | 3.13 µg/mL | 31.1 µg/mL | 9.9 |  | 
